Patent publication US20100216753A1, “CONTROLLED RELEASE OF DRUGS INTO/THROUGH THE SKIN” (Galderma S.A., priority 2005, published 2010)

Experiment: Distribution of the drug in human skin (Franz' cells)
Assay type: in vitro ADME
Conditions: 16 hours after application on a human skin (Franz' cells)

CCC(=O)O[C@]1(C(=O)CCl)[C@@H](C)C[C@H]2[C@@H]3CCC4=CC(=O)C=C[C@]4(C)[C@@]3(F)[C@@H](O)C[C@@]21C [Clobetasol-17-propionate]
Skin distribution of the drug: accumulate in the Stratum corneum
